Experimental data: PMC4407702 (International journal of pharmaceutics, 2011)
In brackets after ≈: the same amount, converted by molar mass. Several values for one entry are separate records, joined by “and”; a condition that tells them apart may be missing. Identical values can stand only once. Like-named read-outs stand apart in the source and are kept apart here.

Columns and labels:
SVCT [1] = molecular target: SVCT (Canis lupus familiaris, UniProt A8CX01); experiment: Inhibition of [14C]AA uptake in MDCK-MDR1 cells; type: cell-based, canine; settings: 200 μM unlabeled compound, [14C]AA 23.5 μM
SVCT (Canis lupus familiaris, UniProt A8CX01), sequence (A8CX01 1-605): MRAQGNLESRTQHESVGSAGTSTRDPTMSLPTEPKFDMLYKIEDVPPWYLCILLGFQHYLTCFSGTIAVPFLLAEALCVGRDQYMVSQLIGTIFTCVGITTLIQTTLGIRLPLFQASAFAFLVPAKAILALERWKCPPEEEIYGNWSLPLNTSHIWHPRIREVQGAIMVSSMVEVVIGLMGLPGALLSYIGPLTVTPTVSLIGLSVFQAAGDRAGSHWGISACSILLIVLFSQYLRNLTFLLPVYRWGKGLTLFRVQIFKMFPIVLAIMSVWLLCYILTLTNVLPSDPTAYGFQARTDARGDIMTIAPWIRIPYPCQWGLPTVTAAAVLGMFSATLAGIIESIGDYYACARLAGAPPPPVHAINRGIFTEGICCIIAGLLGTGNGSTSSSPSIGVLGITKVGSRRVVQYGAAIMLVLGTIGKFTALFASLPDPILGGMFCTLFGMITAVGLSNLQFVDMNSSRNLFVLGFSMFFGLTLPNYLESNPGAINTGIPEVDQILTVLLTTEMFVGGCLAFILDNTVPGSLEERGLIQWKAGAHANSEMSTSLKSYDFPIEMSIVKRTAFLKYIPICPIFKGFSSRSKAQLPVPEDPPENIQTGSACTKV

SVCT [2] = molecular target: SVCT (Homo sapiens, UniProt Q9UHI7); experiment: Inhibition of [14C]AA uptake in Caco-2 cells; type: cell-based; settings: 200 μM unlabeled compound, [14C]AA 23.5 μM
SVCT (Homo sapiens, UniProt Q9UHI7), sequence (Q9UHI7 whole entry): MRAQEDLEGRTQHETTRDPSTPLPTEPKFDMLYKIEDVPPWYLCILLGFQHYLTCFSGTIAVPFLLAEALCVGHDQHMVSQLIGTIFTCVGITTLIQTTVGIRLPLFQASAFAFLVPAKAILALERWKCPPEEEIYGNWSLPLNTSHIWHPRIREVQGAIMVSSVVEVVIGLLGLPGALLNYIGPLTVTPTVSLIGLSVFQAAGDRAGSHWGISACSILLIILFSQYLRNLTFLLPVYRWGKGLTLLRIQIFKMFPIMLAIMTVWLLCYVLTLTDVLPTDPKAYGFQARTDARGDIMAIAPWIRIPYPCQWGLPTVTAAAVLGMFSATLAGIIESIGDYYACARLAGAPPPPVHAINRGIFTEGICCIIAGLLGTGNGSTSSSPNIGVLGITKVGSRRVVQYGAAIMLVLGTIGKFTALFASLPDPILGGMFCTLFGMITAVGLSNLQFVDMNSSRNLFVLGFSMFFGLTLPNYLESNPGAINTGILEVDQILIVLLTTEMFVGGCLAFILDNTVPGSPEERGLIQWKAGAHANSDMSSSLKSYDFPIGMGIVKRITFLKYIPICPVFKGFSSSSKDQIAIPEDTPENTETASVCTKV

[3] = Transepithelial transport across Caco-2 cell monolayers; type: in vitro ADME; settings: human, Caco-2
Caco-2 cell monolayers [4] = experiment: as above; type: in vitro ADME
Aqueous solubility study = type: physicochemical; settings: distilled deionized water, 25 °C, thermodynamic from solid
Caco-2 cell monolayers [5] = settings: ref Ucpinar and Stavchansky, 2003; cited from earlier work
[6] = tested on: MDCK-MDR1 cell monolayers; settings: ref Jain et al., 2005; cited from earlier work
[7] = Caco-2, [14C]AA 23.5 μM or AA-Su-Saq 25 μM donor, 3 h

Uptake of [14C]AA diminished (inhibition) (SVCT [1]) [%] | Inhibition of [14C]AA uptake (SVCT [2]) [%] | Papp A→B at 3 h, 23.5 μM [3] [×10⁻⁶ cm/s] | Papp B→A at 3 h, 23.5 μM [3] [×10⁻⁶ cm/s] | P(A–B) (Caco-2 cell monolayers [4]; [7]) | P(B–A) (Caco-2 cell monolayers [4]; [7]) | PA–B and PB–A in Caco-2 cells higher than in MDCK-MDR1 cells (Caco-2 cell monolayers [4]; Caco-2 vs MDCK-MDR1) | solubility at 24 h (Aqueous solubility study) [µM] | Compound | P(A–B) (Caco-2 cell monolayers [5]) | P(B–A) (Caco-2 cell monolayers [5]) | P(A–B) [6] | P(B–A) [6] | PA–B [6] [×10⁻⁶ cm/s]
65 | 66 | 17.6 ± 0.39 | 15.5 ± 3.11 | 17.6 ± 0.39 cm/s, × 10^−6 | 15.5 ± 3.11 cm/s, × 10^−6 | about 2 fold |  | O=C1O[C@H]([C@@H](O)CO)C(O)=C1O [AA, L-Ascorbic acid] |  |  |  |  | 
 |  |  |  |  |  |  | 1750 ± 290 (≈ 1170 µg/mL) | CC(C)(C)NC(=O)[C@@H]1C[C@@H]2CCCC[C@@H]2CN1C[C@@H](O)[C@H](Cc1ccccc1)NC(=O)[C@H](CC(N)=O)NC(=O)c1ccc2ccccc2n1 [Saq, Saquinavir] | 0.93 cm/s, × 10^−6 and 0.93 ±0.10 cm/s, × 10^−6 | 20.39 ± 1.53 cm/s, × 10^−6 | 0.463 ± 0.025 cm/s, × 10^−6 | 19.9 ± 1.70 cm/s, × 10^−6 | 0.463
